In brackets after ≈: the same amount, converted by molar mass.
How the values were obtained:
Experiment in all cases: microbe, parasite or virus in culture
Type in all cases: cell-based
[1] = tested on: M. tuberculosis clinical isolate 13946; conditions: Mycobacterium tuberculosis, read-out: MIC 13946
[2] = tested on: M. tuberculosis clinical isolate 14862; conditions: Mycobacterium tuberculosis, read-out: MIC 14862
[3] = tested on: PBTZ169-resistant strain of M. tuberculosis; conditions: Mycobacterium tuberculosis, read-out: MIC PBTZ169-resistant strain
[4] = tested on: bedaquiline-resistant strain of M. tuberculosis; conditions: Mycobacterium tuberculosis, read-out: MIC bedaquiline-resistant strain

Row | Compound | MIC [1] [µg/mL] | MIC [2] [µg/mL] | MIC [3] [µg/mL] | MIC [4] [µg/mL]
1 | CCOC(=O)NC(=O)c1ccsc1NC(=O)c1ccc(C(=O)N2CCCCC2)cc1 [Compound 23j, Ethyl (2-(4-(Piperidine-1-carbonyl)benzamido)thiophene-3-carbonyl)carbamate] | 0.082 (≈ 0.191 µM) | 0.059 (≈ 0.137 µM) | – | –
2 | CCOC(=O)NC(=O)c1ccsc1NC(=O)c1ccc(C(=O)N2CCCCC2)c(F)c1 [Compound 24f, Ethyl (2-(3-Fluoro-4-(piperidine-1-carbonyl)benzamido)thiophene-3-carbonyl)carbamate] | 0.031 (≈ 0.0693 µM) | 0.031 (≈ 0.0693 µM) | – | –
3 | CCOC(=O)NC(=O)c1ccsc1NC(=O)c1ccc(C(=O)N2CCCCC2)s1 [Compound 24j, Ethyl (2-(5-(Piperidine-1-carbonyl)thiophene-2-carboxamido)thiophene-3-carbonyl)carbamate] | 0.12 (≈ 0.276 µM) | 0.12 (≈ 0.276 µM) | – | –
4 | CCOC(=O)NC(=O)c1ccsc1NC(=O)c1coc(C(=O)N2CCCCC2)c1 [Compound 24k, Ethyl (2-(5-(Piperidine-1-carbonyl)furan-3-carboxamido)thiophene-3-carbonyl)carbamate] | 0.44 (≈ 1.05 µM) | 0.23 (≈ 0.548 µM) | – | –
5 | COC(=O)NC(=O)c1ccsc1NC(=O)c1ccc(C(=O)N2CCCCC2)cc1 [Compound 25a, Methyl (2-(4-(Piperidine-1-carbonyl)benzamido)thiophene-3-carbonyl)carbamate] | 0.24 (≈ 0.578 µM) | 0.24 (≈ 0.578 µM) | – | –
6 | COC(=O)NC(=O)c1ccsc1NC(=O)c1ccc(C(=O)N2CCCCC2)c(F)c1 [Compound 25b, Methyl (2-(3-Fluoro-4-(piperidine-1-carbonyl)benzamido)thiophene-3-carbonyl)carbamate] | 0.062 (≈ 0.143 µM) | 0.12 (≈ 0.277 µM) | – | –
7 | O=C(Nc1sccc1C(=O)Nc1nccc(C(F)(F)F)n1)c1ccc(C(=O)N2CCCCC2)cc1 [Compound 25l, 2-(4-(Piperidine-1-carbonyl)benzamido)-N-(4-(trifluoromethyl)pyrimidin-2-yl)thiophene-3-carboxamide] | 0.94 (≈ 1.87 µM) | 0.48 (≈ 0.953 µM) | – | –
8 | NNC(=O)c1ccncc1 [INH, isoniazid, reference compound] | 2.46 (≈ 17.9 µM) | > 10 | – | –
9 | O=c1nc(N2CCN(CC3CCCCC3)CC2)sc2c([N+](=O)[O-])cc(C(F)(F)F)cc12 [PBTZ169] | – | – | 0.005 (≈ 0.011 µM) | –
10 | CCOC(=O)NC(=O)c1ccsc1NC(=O)c1nc2ccccc2s1 [TCA1, reference compound] | 0.95 (≈ 2.53 µM) | 0.48 (≈ 1.28 µM) | – | –
11 | COc1nc2ccc(Br)cc2cc1[C@@H](c1ccccc1)[C@@](O)(CCN(C)C)c1cccc2ccccc12 [bedaquiline, reference compound] | – | – | – | 2.24 (≈ 4.03 µM)

From PMC8154581, “Discovery of Novel Thiophene-arylamide Derivatives as DprE1 Inhibitors with Potent Antimycobacterial Activities” (Journal of Medicinal Chemistry, 2021)
